Experimental data: patent US20260355212A1 (priority 2022, published 2026)

What was measured:
SARS-CoV-2 Mpro = SARS-CoV-2 Mpro (Severe acute respiratory syndrome coronavirus 2, UniProt P0DTD1); assay: SARS-CoV-2 Mpro enzymatic inhibition assay (fluorescence); assay type: biochemical
How it was run: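 A fluorescence readout (340 nm excitation, 490 nm emission) was taken after the substrate reaction ran 60 min at 30° C. Before substrate addition, E. coli-expressed protease and compound (3-fold dilutions, 10 doses, duplicates) sat together 30 min at room temperature. Percent inhibition was fitted by variable-slope nonlinear regression to give IC50.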

HCoV-229E Mpro = HCoV-229E Mpro (Human coronavirus 229E, UniProt P0C6X1); assay: HCoV-229E Mpro enzymatic inhibition assay (fluorescence); assay type: biochemical
Chain of HCoV-229E Mpro (P0C6X1 2966-3267 limits assumed): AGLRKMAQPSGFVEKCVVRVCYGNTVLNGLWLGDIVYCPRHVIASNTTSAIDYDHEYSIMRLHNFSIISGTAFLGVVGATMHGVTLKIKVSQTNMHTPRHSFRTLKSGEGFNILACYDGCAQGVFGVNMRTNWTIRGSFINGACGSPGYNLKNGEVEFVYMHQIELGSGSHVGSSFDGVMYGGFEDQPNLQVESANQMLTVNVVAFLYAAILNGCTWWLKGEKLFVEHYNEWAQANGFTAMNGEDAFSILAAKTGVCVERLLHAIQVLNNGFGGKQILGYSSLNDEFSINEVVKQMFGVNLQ
Protocol: (§1) The hCoV Mpro are cloned, expressed in E. coli and purified by WuXi AppTec Co., Ltd. The substrate are synthesized by Genscript Biotech.
(§2) Compounds are 3 fold serially diluted for 10 doses and added to an assay plate (384w format) using ECHO, in duplicate wells. The test concentration of test compounds is defined by sponsor. […] For no inhibition control (ZPE, zero percent effect), DMSO is added.
(§3) 25 μL of Mpro proteins are added to the assay plates containing compounds, respectively, using Multidrop. The compounds and Mpro proteins are pre-incubated at room temperature for 30 min. Then 5 µL of Mpro substrates are added to the related assay plates, respectively. Each activity testing point has a relevant background control to normalize the fluorescence interference of compound.
(§4) After 60 min incubation at 30° C., the fluorescence signal (RFU) is detected using a microplate reader M2e (SpectraMax) at Ex/Em=340 nm/490 nm.
(§5) The inhibition activity is calculated using the formula below, IC50 values will be calculated using the Inhibition % data.
(§6) Inhibition %=[(CPD−BGCPD)−(ZPE−BGZPE)/(HPE−BGHPE)−(ZPE−BGZPE)]×[…] • CPD: Signal of test compounds wells, containing compound+enzyme+substrate. • ZPE: Average of signals of zero percent effective control wells, containing enzyme+substrate, no compound. • HPE: Average of signals of hundred percent effect control wells, containing GC376+enzyme+substrate. • BG: Compound background control wells, containing compound+substrate, no enzyme
(§7) IC50 values of compounds are calculated with the GraphPad Prism software using the nonlinear regression model of log(inhibitor) vs. response—Variable slope (four parameters).

HCoV-HKU1 Mpro = HCoV-HKU1 Mpro (Human coronavirus HKU1, UniProt P0C6X2); assay: HCoV-HKU1 Mpro enzymatic inhibition assay (fluorescence); assay type: biochemical
Chain of HCoV-HKU1 Mpro (P0C6X2 3335-3637 limits assumed): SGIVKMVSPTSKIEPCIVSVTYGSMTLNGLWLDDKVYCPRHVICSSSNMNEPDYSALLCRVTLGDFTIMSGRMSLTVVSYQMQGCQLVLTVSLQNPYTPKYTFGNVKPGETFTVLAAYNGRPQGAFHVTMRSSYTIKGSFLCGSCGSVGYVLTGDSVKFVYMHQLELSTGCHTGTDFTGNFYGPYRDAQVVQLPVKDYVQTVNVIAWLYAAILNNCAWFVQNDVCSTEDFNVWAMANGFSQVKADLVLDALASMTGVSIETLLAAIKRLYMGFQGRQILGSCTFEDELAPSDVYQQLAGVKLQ
Protocol: as §1, §2, §3, §4, §5, §6, §7

MERS Mpro = MERS Mpro (Middle East respiratory syndrome-related coronavirus, UniProt K9N7C7); assay: biochemical; parameters: species or system MERS-CoV
Chain of MERS Mpro (K9N7C7 3248-3553 limits assumed): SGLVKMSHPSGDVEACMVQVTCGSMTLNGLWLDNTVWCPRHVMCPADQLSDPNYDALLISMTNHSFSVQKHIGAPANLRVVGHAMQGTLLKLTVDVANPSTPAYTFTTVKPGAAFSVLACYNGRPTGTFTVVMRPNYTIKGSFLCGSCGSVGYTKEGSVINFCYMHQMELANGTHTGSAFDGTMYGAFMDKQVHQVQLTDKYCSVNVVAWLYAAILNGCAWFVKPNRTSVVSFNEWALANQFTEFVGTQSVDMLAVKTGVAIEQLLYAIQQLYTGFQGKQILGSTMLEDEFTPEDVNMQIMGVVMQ

HCoV-NL63 Mpro = HCoV-NL63 Mpro (Human coronavirus NL63, UniProt P0C6X5); assay: HCoV-NL63 Mpro enzymatic inhibition assay (fluorescence); assay type: biochemical
Chain of HCoV-NL63 Mpro (P0C6X5 2940-3242 limits assumed): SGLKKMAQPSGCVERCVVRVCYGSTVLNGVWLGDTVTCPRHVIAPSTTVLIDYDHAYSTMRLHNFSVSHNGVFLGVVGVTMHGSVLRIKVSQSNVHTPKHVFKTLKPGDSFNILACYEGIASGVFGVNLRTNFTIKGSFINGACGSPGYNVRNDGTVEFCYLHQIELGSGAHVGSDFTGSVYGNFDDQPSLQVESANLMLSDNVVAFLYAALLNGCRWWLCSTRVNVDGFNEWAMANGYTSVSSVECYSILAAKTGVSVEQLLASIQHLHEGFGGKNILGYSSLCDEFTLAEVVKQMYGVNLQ
Protocol: as §1, §2, §3, §4, §5, §6, §7

HCoV-OC43 Mpro = HCoV-OC43 Mpro (Human coronavirus OC43, UniProt P0C6X6); assay: HCoV-OC43 Mpro enzymatic inhibition assay (fluorescence); assay type: biochemical
Chain of HCoV-OC43 Mpro (P0C6X6 3247-3549 limits assumed): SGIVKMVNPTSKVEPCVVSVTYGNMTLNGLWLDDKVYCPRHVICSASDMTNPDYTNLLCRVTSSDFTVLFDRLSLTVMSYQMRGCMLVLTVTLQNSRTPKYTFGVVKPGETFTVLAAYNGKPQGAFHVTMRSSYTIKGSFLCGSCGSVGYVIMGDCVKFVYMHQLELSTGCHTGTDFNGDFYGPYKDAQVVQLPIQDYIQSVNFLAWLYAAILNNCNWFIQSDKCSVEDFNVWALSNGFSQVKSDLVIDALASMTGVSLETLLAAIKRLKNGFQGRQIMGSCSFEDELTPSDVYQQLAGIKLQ
Protocol: as §1, §2, §3, §4, §5, §6, §7

SARS-CoV-1 Mpro = SARS-CoV-1 Mpro (Severe acute respiratory syndrome coronavirus, UniProt P0C6X7); assay: biochemical

Structure (SMILES)	IC50 (SARS-CoV-2 Mpro) [nM]	IC50 (HCoV-229E Mpro) [nM]	IC50 (HCoV-HKU1 Mpro) [nM]	IC50 (MERS Mpro) [nM]	IC50 (HCoV-NL63 Mpro) [nM]	IC50 (HCoV-OC43 Mpro) [nM]	IC50 (SARS-CoV-1 Mpro) [nM]
O=C[C@H](C[C@@H]1CCNC1=O)NC(=O)[C@@H]1CC2(CCC2)CN1C(=O)c1cc2ccccc2[nH]1 [Compound 10, (S)-6-(1H-indole-2-carbonyl)-N—((S)-1-oxo-3-((S)-2-oxopyrrolidin-3-yl)propan-2-yl)-6-azaspiro[3.4]octane-7-carboxamide]	12.3	32.3	17.7	194	45	35.8	45.3
CC1(C)[C@@H]2[C@@H](C(=O)N[C@H](C=O)C[C@@H]3CCCNC3=O)N(C(=O)c3cc4ccccc4[nH]3)C[C@@H]21 [Compound 11, (1R,2S,5S)-3-(1H-indole-2-carbonyl)-6,6-dimethyl-N—((S)-1-oxo-3-((S)-2-oxopiperidin-3-yl)propan-2-yl)-3-azabicyclo[3.1.0]hexane-2-carboxamide]	13.2	37.2	40	230	50.6	34.1	38.4
CC1(C)[C@@H]2[C@@H](C(=O)N[C@H](C=O)C[C@@H]3CCNC3=O)N(C(=O)c3cc4c(F)ccc(F)c4[nH]3)C[C@@H]21 [Compound 13, (1R,2S,5S)-3-(4,7-difluoro-1H-indole-2-carbonyl)-6,6-dimethyl-N—((S)-1-oxo-3-((S)-2-oxopyrrolidin-3-yl)propan-2-yl)-3-azabicyclo[3.1.0]hexane-2-carboxamide]	14	48.1	38.2	372	76.3	69	37.7
CCc1cccc2[nH]c(C(=O)N3C[C@H]4[C@@H]([C@H]3C(=O)N[C@H](C=O)C[C@@H]3CCNC3=O)C4(C)C)cc12 [Compound 14, (1R,2S,5S)-3-(4-ethyl-1H-indole-2-carbonyl)-6,6-dimethyl-N—((S)-1-oxo-3-((S)-2-oxopyrrolidin-3-yl)propan-2-yl)-3-azabicyclo[3.1.0]hexane-2-carboxamide]	14.5	39.6	22.2	322	49.3	39.4	52
CC1(C)[C@@H]2[C@@H](C(=O)N[C@H](C=O)C[C@@H]3CCNC3=O)N(C(=O)c3cc4c(F)cccc4[nH]3)C[C@@H]21 [Compound 15, (1R,2S,5S)-3-(4-fluoro-1H-indole-2-carbonyl)-6,6-dimethyl-N—((S)-1-oxo-3-((S)-2-oxopyrrolidin-3-yl)propan-2-yl)-3-azabicyclo[3.1.0]hexane-2-carboxamide]	14.5	39.7	24.2	175	44.5	32.8	32.7
CC1(C)[C@@H]2[C@@H](C(=O)N[C@H](C=O)C[C@@H]3CCNC3=O)N(C(=O)CC3CCC(F)(F)CC3)C[C@@H]21 [Compound 16, (1R,2S,5S)-3-(2-(4,4-difluorocyclohexyl)acetyl)-6,6-dimethyl-N—((S)-1-oxo-3-((S)-2-oxopyrrolidin-3-yl)propan-2-yl)-3-azabicyclo[3.1.0]hexane-2-carboxamide]	14.6	24.9	12.5	157	28.9	30.5	23.5
CC1(C)[C@@H]2[C@@H](C(=O)N[C@H](C=O)C[C@@H]3CCNC3=O)N(C(=O)C3(c4ccccc4)CCCC3)C[C@@H]21 [Compound 17, (1R,2S,5S)-6,6-dimethyl-N—((S)-1-oxo-3-((S)-2-oxopyrrolidin-3-yl)propan-2-yl)-3-(1-phenylcyclopentanecarbonyl)-3-azabicyclo[3.1.0]hexane-2-carboxamide]	15.2	48.4	23.7	276	180	59.8	27.8
